Test results published in patent US20100183600A1, “RAF Inhibitors and Their Uses” (ARQULE, INC., priority 2008, published 2010).
One block for each compound: values may come before it.

Key:
Test in all cases: Cell growth inhibition assay (MTS)
Assay type in all cases: cell-based
SK-MEL-2 = conditions: Homo sapiens; SK-MEL-2, 72 hours
Procedure, shortened: (§1)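 72 h compound exposure, DMEM/10% FBS, 37° C., 5% CO2; 1-5×10^3 cells/well pre-cultured 24 h. MTS/PMS 4 hr, A492. IC50 = 50% drop in absorbance.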

K562 = conditions: Homo sapiens; K562, CML
Procedure, shortened: as §1

LOVO = conditions: Homo sapiens, colorectal carcinoma
Procedure, shortened: as §1

ASPC-1 = conditions: Homo sapiens, ASPC1; ASPC-1, pancreas
Procedure, shortened: as §1

SKMES-1 = conditions: Homo sapiens, SK-MES-1; SKMES-1, squamous cell carcinoma
Procedure, shortened: as §1

NCI-H358 = conditions: Homo sapiens; NCI-H358, non-small cell lung cancer, brancioalveolar carcinoma
Procedure, shortened: as §1

NCI-H661 = conditions: Homo sapiens; NCI-H661, large cell lung carcinoma
Procedure, shortened: as §1

BDCM = conditions: Homo sapiens, lymphoblast
Procedure, shortened: as §1

SK-OV-3 = conditions: Homo sapiens; SK-OV-3, ovary
Procedure, shortened: as §1

NCI-H1299 = conditions: Homo sapiens; NCI-H1299, non-small cell lung carcinoma
Procedure, shortened: as §1

HEP-G2 = conditions: Homo sapiens, HepG2; HEP-G2, hepatocellular carcinoma
Procedure, shortened: as §1

PLC/PRF/5 = conditions: Homo sapiens; PLC/PRF/5, liver
Procedure, shortened: as §1

A427 = conditions: Homo sapiens, A-427; A427, lung Carcinoma
Procedure, shortened: as §1

SNU475 = conditions: Homo sapiens, SNU-475; SNU475, liver
Procedure, shortened: as §1

HT-1080 = conditions: Homo sapiens; HT-1080, fibrosarcoma
Procedure, shortened: as §1

HEP-3B = conditions: Homo sapiens, Hep3B, liver
Procedure, shortened: as §1

MDAMB-231 = conditions: Homo sapiens, MDA-MB-231; MDAMB-231, breast adenocarcinoma
Procedure, shortened: as §1

SK-LMS-1 = conditions: Homo sapiens; SK-LMS-1, leiomyosarcoma
Procedure, shortened: as §1

HCT-15 = conditions: Homo sapiens; HCT-15, colon
Procedure, shortened: as §1

CFPPAC-1 = conditions: Homo sapiens; CFPPAC-1, pancreasductal adenocarcinoma; cystic fibrosis
Procedure, shortened: as §1

COLO-205 = conditions: Homo sapiens; COLO-205, colon
Procedure, shortened: as §1

786-O = conditions: Homo sapiens, 786-0, kidney
Procedure, shortened: as §1

AN3CA = conditions: Homo sapiens, AN3-CA, endometrial
Procedure, shortened: as §1

CAKI-1 = conditions: Homo sapiens; CAKI-1, kidney
Procedure, shortened: as §1

MKN-45 = conditions: Homo sapiens; MKN-45, stomach
Procedure, shortened: as §1

HT29 = conditions: Homo sapiens, HT-29; HT29, colorectal carcinoma
Procedure, shortened: as §1

U937 = conditions: Homo sapiens, U-937; U937, monocyte histocytic lymphoma
Procedure, shortened: as §1

RT4 = conditions: RT-4; RT4, human urinary bladder cell carcinoma
Procedure, shortened: as §1

PANC-1 = conditions: Homo sapiens; PANC-1, pancreas epithelioid carcinoma
Procedure, shortened: as §1

SW620 = conditions: Homo sapiens, SW-620; SW620, colorectal adenocarcinoma
Procedure, shortened: as §1

CAKI-2 = conditions: Homo sapiens; CAKI-2, kidney
Procedure, shortened: as §1

NCI-H1993 = conditions: Homo sapiens; NCI-H1993, lung adenocarcinoma
Procedure, shortened: as §1

CALU-6 = conditions: Homo sapiens; CALU-6, lung
Procedure, shortened: as §1

MCF-7 = conditions: Homo sapiens, MCF7; MCF-7, breast adenocarcinoma
Procedure, shortened: as §1

GI50 (SK-MEL-2): 0.154 µM
Structure (SMILES): Cn1ccc(S(=O)(=O)N2CCC[C@@H](Nc3nccc(-c4c(-c5cccc(O)c5)nc5occn45)n3)C2)n1 [Compound 17, (R)-3-(5-(2-(1-(1-methyl-1H-pyrazol-3-ylsulfonyl)piperidin-3-ylamino)pyrimidin-4-yl)imidazo[2,1-b]oxazol-6-yl)phenol]

GI50 (K562): 9.86 µM
GI50 (LOVO): 2.17 µM
GI50 (ASPC-1): 6.33 µM
GI50 (SKMES-1): 9.02 µM
GI50 (NCI-H358): 7.5 µM
GI50 (NCI-H661): 16.2 µM
GI50 (SK-OV-3): 13.7 µM
GI50 (NCI-H1299): 6.38 µM
GI50 (HEP-G2): 1.38 µM
GI50 (SNU475): 29.1 µM
GI50 (HT-1080): 26.8 µM
GI50 (HEP-3B): 3.16 µM
GI50 (MDAMB-231): 28.2 µM
GI50 (SK-LMS-1): 15.2 µM
GI50 (HCT-15): 23.2 µM
GI50 (COLO-205): 0.25 µM
GI50 (786-O): 18.2 µM
GI50 (MKN-45): 21.4 µM
GI50 (HT29): 5.03 µM
GI50 (U937): 20.2 µM
GI50 (PANC-1): 29.7 µM
GI50 (SW620): 22.8 µM
GI50 (NCI-H1993): 26.2 µM
GI50 (CALU-6): 2.97 µM
GI50 (MCF-7): 12.5 µM
Structure (SMILES): Cn1ccc(S(=O)(=O)N2CCC[C@@H](Nc3nccc(-c4c(-c5cccc(OCOP(=O)(O)O)c5)nc5occn45)n3)C2)n1 [Compound 19, (R)-(3-(5-(2-(1-(1-methyl-1H-pyrazol-3-ylsulfonyl)piperidin-3-ylamino)pyrimidin-4-yl)imidazo[2,1-b]oxazol-6-yl)phenoxy)methyl dihydrogen phosphate]
GI50 (BDCM): 32.7 µM
GI50 (PLC/PRF/5): 13.6 µM
GI50 (A427): 3.23 µM
GI50 (CFPPAC-1): 11.9 µM
GI50 (AN3CA): 20.1 µM
GI50 (CAKI-1): 30.3 µM
GI50 (RT4): 10 µM
GI50 (CAKI-2): 26.2 µM
